One series concerns insects such as ants. Put plainly: Repellent activity (Test Example 14). The format is in vivo, pill bug. Particulars: 2 mL of 1% aqueous solution on tissue paper with 1 g honey, 8 hours. Here is the method:
The repellent performance of the ozonized surfactant of the present invention was checked. […] In addition, 1 g of honey was instilled into the center. […] These specimens were placed on leaf mold in a flower bed, and the conditions were observed 8 hours later.

A short description of series [1]: Temporal change in oxidizing property (iodine titration method). Particulars: 25° C. The series is classed as physicochemical. An excerpt:
After deaerating the obtained aqueous ozonized surfactant solution to remove dissolved ozone gas by helium purging, the oxidizing property of the aqueous ozonized surfactant solution can be determined by the iodine titration method (see Non Patent Literature 1). Whether or not the aqueous ozonized surfactant solution maintains a function as a surfactant can be evaluated by checking whether or not frothing, which is a characteristic of surfactants, occurs when the solution is agitated or vibrated.
Meanwhile, oxygen was supplied from an oxygen cylinder into an ozonizer (ozonizer GR-RB made by Sumitomo Precision Products Co., Ltd.) at an oxygen flow rate of 0.3 L/min to ozonize the oxygen to produce ozone gas. Then, the ozone gas was dissolved in the above-described aqueous solution in a dissolving module (SEK model made by ERC Technology), and the aqueous solution was circulated at a flow rate of 1 L/min. […] Further, in 30 minutes, the concentration increased to 25 ppm (see FIG. 2). After deaerating the aqueous solution that had undergone about 30-minute ozone treatment to remove dissolved ozone gas by helium purging, oxidizing property of the aqueous solution was determined by the iodine titration method. As a result, the aqueous solution had oxidizing property, and frothing, which is a characteristic of surfactants, was observed. The results confirmed that ozonized Tween 80 had been produced. Further, a temporal change in the oxidizing property of the aqueous solution was determined by the iodine titration method at 25° C. for 20 days. As a result, the percentage of oxidizing property measured after 20 days to that measured just after preparation was 109%.
The solution A was diluted to a 1% aqueous solution, and a temporal change in the oxidizing property of the aqueous solution was determined by the iodine titration method at 25° C. for 700 days. As a result, the percentage of oxidizing property measured after 700 days to that measured just after preparation was 101%.

The test system of another series is slug. Put plainly: Insecticidal activity: test of killing slugs. The series is classed as in vivo. Particulars: 1% aqueous solution, 2 pushes: 1.88 mL sprayed from 15 cm above. The method, then:
In order to check the insect control performance of the ozonized surfactant, a test of killing slugs was performed. A slug was put into a glass petri dish. Onto the slug, a 1% aqueous solution of the ozonized surfactant obtained in Example 4, 5, 7, 9 or 10 (2 pushes: 1.88 mL) was sprayed from 15 cm above. After that, the time elapsed until the slug died (the motion stopped) was measured. As a control, the same evaluation was simultaneously performed with a commercial insecticide (product name: NEW Namekuji (slug) Spray, made by Sumitomo Chemical Garden Products Inc., Lot No. 11.05 0806JE) containing a natural substituted phenol, a copper compound and an alcohol, as active ingredients.

Series [2] has as its system mold (filamentous fungus). Put plainly: Evaluation of antiseptic activity in thickener solution. The format is cell-based. The following applies: 0.1% in 3.5% Carbopol ETD2020 aqueous solution, 25° C. The method, then: In order to check the antiseptic performance of ozonized surfactants, the ozonized surfactants were added to a substance susceptible to mold. […] Into a 100 mL-glass bottle, 50 mL of the sample was charged. The bottles were kept at 25° C. in a thermostatic air chamber, and temporal changes were visually observed. […] The mold-like material was removed and examined under a 700-power microscope. As a result, spores were detected and the material was identified as a filamentous fungus. The above results confirmed the antiseptic activity of the ozonized surfactants.

The subject of the next series is Orgyia thyellina larva. Kind of series: Insecticidal activity: test of killing other insects. The format is in vivo. Particulars: 2% aqueous solution, 1.88 mL sprayed. The method, then:
(§1) In order to check the insect control performance of the ozonized surfactant, a test of killing other insects was performed. An Orgyia thyellina larva, a Sphrageidus similis larva, and an Arge pagana larva were put into separate glass petri dishes. Onto each insect pest, a 2% aqueous solution of the solution obtained in Example 5 (2 pushes: 1.88 mL) was sprayed from 15 cm above. After that, the time elapsed until each insect died (the motion stopped) was measured.

In another series the test system is Arge pagana larva. The description is as above. The format is in vivo. The following applies: 2% aqueous solution, 1.88 mL sprayed. The method, then: as §1
Series [3] relates to Sphrageidus similis larva. Described as above. The series is classed as in vivo. Particulars: 2% aqueous solution, 1.88 mL sprayed. The method, then: as §1
The nature of series [4]: Surface-active property test (contact angle). The series is classed as physicochemical. The method, then:
The surface-active properties of ozonized surfactants were determined in the following manner. Aqueous solutions each containing 1% Tween 80, POE (10 EO) oleyl ether or POE (20 EO) oleyl ether (all of which were made by Wako Pure Chemical Industries, Ltd.) were prepared. Each solution was dropped on a polyvinyl chloride plate and measured for a contact angle (θ) with the use of a contact angle meter CA-VP (made by Kyowa Interface Science Co., Ltd.). The same measurement was carried out for a 1% aqueous solution of the ozonized surfactant obtained in Example 1, 4, or 8.

As to `CCCCCCCC/C=C\CCCCCCCC[N+](C)(C)CCCCCCCC/C=C\CCCCCCCC.[Cl-]` [Unozonized surfactant of Ex. 10, dimethyldioleylammonium chloride, reference compound], the “ants gathered on the specimen” value in the series on insects such as ants amounted to 15 ants.

With “Ozonized POE (20 EO) oleyl ether [Example 8]”, in series [1] (1% aqueous solution, 300 days), the “percentage of oxidizing property measured after 300 days to that measured just after preparation” value is reported as 100%.

Regarding “Ozonized POE sorbitan monooleate (20 EO) [Example 7]”, the “Death time of slug” value with slug worked out at 244 s. The “percentage of oxidizing property measured after 700 days to that measured just after preparation” value in series [1] (1% aqueous solution, 700 days) stood at 100%.

As for “Ozonized decaglycerin monooleate [Example 6]”, the “insects gathered on the specimen” value in the series on insects such as ants is recorded as “did not gather at all”. For the same compound, in series [2], the “Antiseptic activity of thickener soln. (visually observed), 1 month after” value was “Good” and the “Antiseptic activity of thickener soln. (visually observed), 1 week after” value was “Good”.

Regarding “Ozonized polyethylene glycol monooleate [Example 5]”, the “Death time of slug” value in the series with slug is 729 s. Further, the Death time in the series with Orgyia thyellina larva is 100 s; with Arge pagana larva, 115 s; in series [3], 130 s. Further, the “percentage of oxidizing property measured after 180 days to that measured just after preparation” value in series [1] (1% aqueous solution, 180 days) is recorded as 100%. In addition, the “Antiseptic activity of thickener soln. (visually observed), 1 month after” value in series [2] is recorded as “Good”. The “Antiseptic activity of thickener soln. (visually observed), 1 week after” value in series [2] was “Good”.

For the compound POE (20 EO) oleyl ether, the “Contact angle, After ozonization” value in series [4] (1% aqueous solution of the ozonized surfactant obtained in Example 1, 4, or 8, on polyvinyl chloride plate) is on record as 26.7 degree (°). For the same compound, in series [4] (1% aqueous solution on polyvinyl chloride plate, ion exchange water 87.3°), the “Contact angle, Before ozonization” value was 59.4 degree (°).

“decaglycerin monooleate [Decaglycerol monooleate, reference compound]”: the “ants gathered on the specimen” value with insects such as ants is listed as 10 ants.

As to ozonized Tween 80 [Example 1], the “percentage of oxidizing property measured after 20 days to that measured just after preparation” value in series [1] (0.1% aqueous solution, 20 days) is 109%.
